Reference: ChEMBL document CHEMBL4311944, “Discovery of 3-Oxabicyclo[4.1.0]heptane, a Non-nitrogen Containing Morpholine Isostere, and Its Application in Novel Inhibitors of the PI3K-AKT-mTOR Pathway” (J Med Chem, 2019)
Values after ≈ are worked out from the molar mass of the structure shown.

How the values were obtained:
[1] = Kinetic solubility of the compound in pH 7.4 phosphate buffered saline measured after 1 hr; assay type: physicochemical; conditions: read-out: Kinetic_solubility
[2] = Lipophilicity, logP of the compound by reversed phase column chromatography; assay type: physicochemical
[3] = Inhibition of PI3K/AKT/mTOR in human lung fibroblasts assessed as reduction in AKT phosphorylation at serine473 residue preincubated for 1 hr followed by PDGF-BB stimulation and measured after 10 mins by electrochemiluminescence method
[4] = Inhibition of ligand binding to mTORC1/mTORC2 in human HuT78 cells after 2 hrs by kinobead competition binding assay; assay type: cell-based
[5] = biological target: T1, Phosphatidylinositol 4,5-bisphosphate 3-kinase catalytic subunit delta isoform (Homo sapiens, UniProt O00329); test: Inhibition of PI3Kdelta (unknown origin) using PIP2 as substrate preincubated for 15 mins followed by substrate addition and measured after 1 hr by HTRF assay
T1 sequence (O00329 whole entry): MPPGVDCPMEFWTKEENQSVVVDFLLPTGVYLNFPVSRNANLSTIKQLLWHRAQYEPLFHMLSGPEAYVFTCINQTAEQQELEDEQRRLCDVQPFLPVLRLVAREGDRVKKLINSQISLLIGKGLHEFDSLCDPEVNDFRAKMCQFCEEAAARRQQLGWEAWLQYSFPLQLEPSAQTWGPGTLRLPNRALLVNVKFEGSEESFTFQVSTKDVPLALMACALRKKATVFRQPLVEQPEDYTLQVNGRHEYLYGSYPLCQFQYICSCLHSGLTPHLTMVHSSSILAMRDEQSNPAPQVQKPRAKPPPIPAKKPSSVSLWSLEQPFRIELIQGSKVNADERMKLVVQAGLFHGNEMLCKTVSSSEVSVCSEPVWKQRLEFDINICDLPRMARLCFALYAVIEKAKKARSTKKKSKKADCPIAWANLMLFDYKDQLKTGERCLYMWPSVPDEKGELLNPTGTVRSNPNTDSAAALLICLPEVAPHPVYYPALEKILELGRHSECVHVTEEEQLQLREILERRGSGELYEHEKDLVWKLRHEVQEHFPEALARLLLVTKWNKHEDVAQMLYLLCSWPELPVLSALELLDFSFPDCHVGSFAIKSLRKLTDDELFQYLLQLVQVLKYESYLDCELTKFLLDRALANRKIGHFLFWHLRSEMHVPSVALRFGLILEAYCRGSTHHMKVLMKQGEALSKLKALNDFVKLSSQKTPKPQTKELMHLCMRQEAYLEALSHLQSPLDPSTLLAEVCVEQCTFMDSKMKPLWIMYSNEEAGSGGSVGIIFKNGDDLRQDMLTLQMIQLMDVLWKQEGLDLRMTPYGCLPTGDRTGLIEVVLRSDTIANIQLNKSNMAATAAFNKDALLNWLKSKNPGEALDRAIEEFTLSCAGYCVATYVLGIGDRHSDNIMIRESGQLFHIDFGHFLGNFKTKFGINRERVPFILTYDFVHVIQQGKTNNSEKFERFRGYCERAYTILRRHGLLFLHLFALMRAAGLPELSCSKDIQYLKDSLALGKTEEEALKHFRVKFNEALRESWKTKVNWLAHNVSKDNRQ

[6] = biological target: Phosphatidylinositol 4,5-bisphosphate 3-kinase catalytic subunit alpha isoform (Homo sapiens, UniProt P42336)
Description: Inhibition of PI3Kalpha (unknown origin) using PIP2 as substrate preincubated for 15 mins followed by substrate addition and measured after 1 hr by HTRF assay

[7] = Intrinsic clearance in rat microsomes; assay type: ADME, Microsome
[8] = Intrinsic clearance in human microsomes; assay type: ADME, Microsome

Chain of Phosphatidylinositol 4,5-bisphosphate 3-kinase catalytic subunit alpha isoform (P42336 whole entry, canonical isoform): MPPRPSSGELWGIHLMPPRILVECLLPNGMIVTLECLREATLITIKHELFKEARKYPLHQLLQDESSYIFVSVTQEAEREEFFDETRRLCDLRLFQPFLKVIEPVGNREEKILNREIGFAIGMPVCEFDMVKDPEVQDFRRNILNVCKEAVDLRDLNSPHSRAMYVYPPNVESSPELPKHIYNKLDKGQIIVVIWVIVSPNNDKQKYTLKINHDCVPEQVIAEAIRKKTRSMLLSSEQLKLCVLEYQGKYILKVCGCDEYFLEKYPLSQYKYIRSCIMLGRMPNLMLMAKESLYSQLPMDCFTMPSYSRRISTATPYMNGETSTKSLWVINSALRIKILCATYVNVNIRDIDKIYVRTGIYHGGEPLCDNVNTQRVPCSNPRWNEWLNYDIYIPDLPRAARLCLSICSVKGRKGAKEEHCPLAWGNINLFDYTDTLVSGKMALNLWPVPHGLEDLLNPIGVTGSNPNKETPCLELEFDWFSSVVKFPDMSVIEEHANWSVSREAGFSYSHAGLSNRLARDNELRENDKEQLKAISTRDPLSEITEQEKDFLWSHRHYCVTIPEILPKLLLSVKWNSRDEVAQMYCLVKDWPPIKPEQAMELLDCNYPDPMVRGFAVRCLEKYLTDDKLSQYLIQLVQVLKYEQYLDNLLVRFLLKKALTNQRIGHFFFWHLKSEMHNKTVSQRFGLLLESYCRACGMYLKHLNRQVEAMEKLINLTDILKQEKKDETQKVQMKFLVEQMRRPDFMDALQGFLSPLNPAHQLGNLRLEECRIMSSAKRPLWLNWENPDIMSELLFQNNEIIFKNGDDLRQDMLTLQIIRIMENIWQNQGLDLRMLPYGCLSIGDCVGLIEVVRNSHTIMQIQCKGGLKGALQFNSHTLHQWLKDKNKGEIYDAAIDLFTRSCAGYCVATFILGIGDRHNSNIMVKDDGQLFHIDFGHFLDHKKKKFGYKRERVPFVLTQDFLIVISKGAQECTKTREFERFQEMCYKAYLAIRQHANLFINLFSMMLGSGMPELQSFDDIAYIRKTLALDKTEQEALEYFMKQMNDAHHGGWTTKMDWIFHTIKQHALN

SMILES	solubility kinetic at 1 h [1] [µg/mL]	logP [2]	pIC50 [4]	IC50 [5] [µM]	IC50 [6] [µM]	CL [7] [mL/min/g]	CL [8] [mL/min/g]	IC50 [3] [µM]
C[C@H]1COCCN1c1ccnc(-c2cccc(O)c2)n1	119 (≈ 439 µM)	3.3	5.7	1	1.58	–	–	3.98
CS(=O)(=O)Cc1cc([C@]23CCOC[C@H]2C3)nc(-c2cccc(O)c2)n1	75 (≈ 208 µM)	3.7	5.8	15.8	20	–	–	3.16
CCNC(=O)Nc1ccc(-c2nccc([C@]34CCOC[C@H]3C4)n2)cc1	125 (≈ 369 µM)	3.9	6.1	25.1	25.1	13.6	1.5	2
CCNC(=O)Nc1ccc(-c2nc(N3CCOC[C@@H]3C)cc(C(C)(C)S(C)(=O)=O)n2)cc1	130 (≈ 282 µM)	4.4	7.3	7.94	7.94	–	–	0.0501
CNCC(=O)Nc1ccc(-c2nc(C(C)(C)S(C)(=O)=O)cc([C@@]34CCOC[C@@H]3C4)n2)cc1	257 (≈ 560 µM)	4.3	7.3	1.26	25.1	–	–	0.158
CS(=O)(=O)Cc1cc([C@@]23CCOC[C@@H]2C3)nc(-c2cccc(O)c2)n1	145 (≈ 402 µM)	3.7	5.9	3.98	7.94	–	–	5.01
Oc1cccc(-c2nccc(C3=CCOCC3)n2)c1	113 (≈ 444 µM)	3.6	5.7	1.26	3.16	–	–	3.16
CCNC(=O)Nc1ccc(-c2nc(CS(C)(=O)=O)cc(N3CCOC[C@@H]3C)n2)cc1	212 (≈ 489 µM)	3.2	7.1	20	15.8	–	–	0.316
Oc1cccc(-c2nccc(N3CCOCC3)n2)c1	107 (≈ 416 µM)	2.7	5.9	0.251	0.501	–	–	2
CNCC(=O)Nc1ccc(-c2nc(CS(C)(=O)=O)cc([C@]34CCOC[C@H]3C4)n2)cc1	158 (≈ 367 µM)	3.1	7.4	> 31.6	> 31.6	–	–	0.794
CCNC(=O)Nc1ccc(-c2nc(CS(C)(=O)=O)cc([C@]34CCOC[C@H]3C4)n2)cc1	96 (≈ 223 µM)	3.6	7	7.94	> 31.6	–	–	0.501
CNCC(=O)Nc1ccc(-c2nc(N3CCOC[C@@H]3C)cc(C(C)(C)S(C)(=O)=O)n2)cc1	198 (≈ 429 µM)	4.1	8	1.58	15.8	–	–	0.0501
CCNC(=O)Nc1ccc(-c2nccc([C@@]34CCOC[C@@H]3C4)n2)cc1	127 (≈ 375 µM)	3.9	5.5	25.1	> 31.6	16.7	1.4	3.16
CC(C)(c1cc([C@]23CCOC[C@H]2C3)nc(-c2cccc(O)c2)n1)S(C)(=O)=O	135 (≈ 348 µM)	4.8	5.5	10	15.8	–	–	1.26
CNCC(=O)Nc1ccc(-c2nc(C(C)(C)S(C)(=O)=O)cc([C@]34CCOC[C@H]3C4)n2)cc1	217 (≈ 473 µM)	4.3	7.6	12.6	> 31.6	–	–	0.1
Oc1cccc(-c2nccc(C34CCOCC3C4)n2)c1 (centres undefined)	102 (≈ 380 µM)	4.1	4.8	3.98	6.31	–	–	7.94
CCNC(=O)Nc1ccc(-c2nc(C(C)(C)S(C)(=O)=O)cc([C@]34CCOC[C@H]3C4)n2)cc1	74 (≈ 161 µM)	4.7	6.9	25.1	> 31.6	–	–	0.0631
CNCC(=O)Nc1ccc(-c2nc(CS(C)(=O)=O)cc([C@@]34CCOC[C@@H]3C4)n2)cc1	167 (≈ 388 µM)	3.1	7.1	15.8	> 31.6	–	–	1.26
CCNC(=O)Nc1ccc(-c2nc(CS(C)(=O)=O)cc(N3CCOCC3)n2)cc1	–	2.7	7.3	–	–	–	–	1.26
Oc1cccc(-c2nccc([C@]34CCOC[C@H]3C4)n2)c1	141 (≈ 525 µM)	4	5.1	1.26	2.51	–	–	7.94
CCNC(=O)Nc1ccc(-c2nc(C(C)(C)S(C)(=O)=O)cc([C@@]34CCOC[C@@H]3C4)n2)cc1	78 (≈ 170 µM)	4.7	6.6	15.8	25.1	–	–	0.158
CC(C)(c1cc([C@@]23CCOC[C@@H]2C3)nc(-c2cccc(O)c2)n1)S(C)(=O)=O	148 (≈ 381 µM)	4.8	< 5.4	7.94	10	–	–	5.01
CNCC(=O)Nc1ccc(-c2nc(CS(C)(=O)=O)cc(N3CCOC[C@@H]3C)n2)cc1	90 (≈ 208 µM)	2.6	7.7	12.6	25.1	–	–	0.501

Further lines, with some results ahead:

solubility kinetic at 1 h [1] [µg/mL]	logP [2]	pIC50 [4]	IC50 [5] [µM]	IC50 [6] [µM]	CL [7] [mL/min/g]	CL [8] [mL/min/g]	SMILES	IC50 [3] [µM]
111 (≈ 328 µM)	4	5.8	5.01	12.6	–	–	CCNC(=O)Nc1ccc(-c2nccc(C34CCOCC3C4)n2)cc1 (centres undefined)	3.16
113 (≈ 311 µM)	3.3	6.7	1	1	–	–	C[C@H]1COCCN1c1cc(CS(C)(=O)=O)nc(-c2cccc(O)c2)n1	2.51
100 (≈ 390 µM)	3.3	4.5	7.94	15.8	–	–	Oc1cccc(-c2nccc(C3CCOCC3)n2)c1	20
121 (≈ 309 µM)	4.4	5.7	3.16	3.16	–	–	C[C@H]1COCCN1c1cc(C(C)(C)S(C)(=O)=O)nc(-c2cccc(O)c2)n1	1.26
123 (≈ 458 µM)	4	< 3	3.16	6.31	–	–	Oc1cccc(-c2nccc([C@@]34CCOC[C@@H]3C4)n2)c1	10
145 (≈ 296 µM)	3.9	8.2	25.1	7.94	–	–	CC(C)(c1cc([C@@]23CCOC[C@@H]2C3)nc(-c2ccc(NC(=S)NCCO)cc2)n1)S(C)(=O)=O	0.0794
109 (≈ 333 µM)	2.7	6.5	10	12.6	–	–	CCNC(=O)Nc1ccc(-c2nccc(N3CCOCC3)n2)cc1	3.98
27 (≈ 77.9 µM)	3.3	6.4	1.58	6.31	–	–	CS(=O)(=O)Cc1cc(C2=CCOCC2)nc(-c2cccc(O)c2)n1	0.794
24 (≈ 74 µM)	3.6	6	15.8	20	–	–	CCNC(=O)Nc1ccc(-c2nccc(C3=CCOCC3)n2)cc1	3.98
77 (≈ 179 µM)	3.6	6.1	25.1	> 31.6	–	–	CCNC(=O)Nc1ccc(-c2nc(CS(C)(=O)=O)cc([C@@]34CCOC[C@@H]3C4)n2)cc1	1.58
